# Laboratory results as given in PubChem BioAssay (NCI).
#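 Method: 48-hour compound exposure of cells in 96-well plates, five concentrations, linear interpolation of endpoints. TGI is the concentration that stops growth completely.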
# How the values were obtained:
# Experiment in all cases: DTP human tumour cell line panel, 48 h
# [1] = system: UO-31 renal
# [2] = system: OVCAR-5 ovarian
# [3] = system: MALME-3M melanoma
# [4] = system: HL-60(TB) leukemia
# [5] = system: SF-268 CNS
# [6] = system: DMS 114 small cell lung
# [7] = system: SK-MEL-2 melanoma
# [8] = system: SK-OV-3 ovarian
# [9] = system: CAKI-1 renal
# [10] = system: TK-10 renal
# [11] = system: UACC-257 melanoma
# [12] = system: ACHN renal
# [13] = system: MOLT-4 leukemia
# [14] = system: U251 CNS
# [15] = system: KM12 colon
# [16] = system: SR leukemia
# [17] = system: HOP-62 NSCLC
# [18] = system: RPMI-8226 leukemia
# [19] = system: OVCAR-3 ovarian
# [20] = system: NCI/ADR-RES ovarian
# [21] = system: SN12C renal
# [22] = system: SK-MEL-28 melanoma
# [23] = system: SNB-19 CNS
# [24] = system: PC-3 prostate
# [25] = system: SF-295 CNS
# [26] = system: DU-145 prostate
# [27] = system: K-562 leukemia
# [28] = system: NCI-H460 lung
# [29] = system: LOX IMVI melanoma
# [30] = system: CCRF-CEM leukemia
# [31] = system: HCC-2998 colon
# [32] = system: 786-0 renal
# [33] = system: BT-549 breast
# [34] = system: IGROV1 ovarian
# [35] = system: EKVX NSCLC
# [36] = system: SK-MEL-5 melanoma
# [37] = system: A549 NSCLC
# [38] = system: HOP-92 NSCLC
# [39] = system: HCT-116 colon
# [40] = system: HT29 colon
# [41] = system: HS 578T breast
# [42] = system: MDA-MB-435
# [43] = system: MCF7 breast
# [44] = system: OVCAR-4 ovarian
# [45] = system: UACC-62 melanoma
# [46] = system: SW-620 colon
# [47] = system: HCT-15 colon
# [48] = system: SF-539 CNS
# [49] = system: MDA-MB-231 breast
# [50] = system: NCI-H522 lung
# [51] = system: RXF 393 renal
# [52] = system: M14 melanoma
# [53] = system: A498 renal
# [54] = system: MDA-N
# [55] = system: NCI-H226 lung
# [56] = system: COLO 205 colon
# [57] = system: T-47D breast
# [58] = system: SNB-75 CNS
# [59] = system: NCI-H23 lung
# [60] = system: OVCAR-8 ovarian
compound,measurement,setting,value
CCCC(=O)OC[n+]1ccc2c(C)c3[nH]c4ccc(OC)cc4c3c(C)c2c1,TGI,[1],6.38 µM
same,TGI,[2],2.31 µM
same,TGI,[3],> 100 µM
same,TGI,[4],1.82 µM
same,TGI,[5],> 100 µM
same,TGI,[6],3.78 µM
same,TGI,[7],7.12 µM
same,TGI,[8],14.9 µM
same,TGI,[9],13.6 µM
same,TGI,[10],20.1 µM
same,TGI,[11],> 100 µM
same,TGI,[12],7.47 µM
same,TGI,[13],0.322 µM
same,TGI,[14],> 100 µM
same,TGI,[15],1.77 µM
same,TGI,[16],2.89 µM
same,TGI,[17],3.08 µM
same,TGI,[18],0.54 µM
N#CC1=C(N)OC2=C(CCCc3ccccc32)C1c1ccc([N+](=O)[O-])cc1 (stereo unspecified),TGI,[19],26.7 µM
same,TGI,[20],31.6 µM
same,TGI,[21],29 µM
same,TGI,[22],35.2 µM
same,TGI,[1],24 µM
same,TGI,[2],50.2 µM
same,TGI,[23],45.7 µM
same,TGI,[3],29.9 µM
same,TGI,[4],28.2 µM
same,TGI,[24],38.8 µM
same,TGI,[25],36.1 µM
same,TGI,[26],21.8 µM
same,TGI,[5],32.7 µM
same,TGI,[27],11.5 µM
same,TGI,[7],40.8 µM
same,TGI,[8],92.1 µM
same,TGI,[28],47.7 µM
same,TGI,[29],41.1 µM
same,TGI,[30],23.2 µM
same,TGI,[31],26.8 µM
same,TGI,[32],42.6 µM
same,TGI,[33],23.9 µM
same,TGI,[34],54 µM
same,TGI,[9],> 100 µM
same,TGI,[35],43 µM
same,TGI,[36],28.3 µM
same,TGI,[10],84.9 µM
same,TGI,[37],74.6 µM
same,TGI,[11],32.4 µM
same,TGI,[38],57.9 µM
same,TGI,[39],26.1 µM
same,TGI,[40],28.2 µM
same,TGI,[41],> 100 µM
same,TGI,[42],39.8 µM
same,TGI,[12],39.1 µM
same,TGI,[13],1.64 µM
same,TGI,[43],36.4 µM
same,TGI,[44],75.4 µM
same,TGI,[14],29.8 µM
same,TGI,[45],24.5 µM
same,TGI,[46],35.5 µM
same,TGI,[47],30.7 µM
same,TGI,[15],32.5 µM
same,TGI,[48],35.2 µM
same,TGI,[49],> 100 µM
same,TGI,[50],24.2 µM
same,TGI,[51],27.6 µM
same,TGI,[52],28 µM
same,TGI,[16],37.4 µM
same,TGI,[17],35.9 µM
same,TGI,[53],27.1 µM
same,TGI,[54],38.2 µM
same,TGI,[55],52.5 µM
same,TGI,[56],31.7 µM
same,TGI,[57],26.1 µM
same,TGI,[58],> 100 µM
same,TGI,[18],13.1 µM
same,TGI,[59],34.6 µM
same,TGI,[60],39 µM
C=CC[C@@]1(OC(C)=O)C(=O)C(=O)OC1C1COC(C)(C)O1 (stereo partly specified),TGI,[19],31.5 µM
same,TGI,[20],71.9 µM
same,TGI,[21],32.5 µM
same,TGI,[22],33.5 µM
same,TGI,[1],31.4 µM
same,TGI,[2],34.5 µM
same,TGI,[23],> 100 µM
same,TGI,[3],32 µM
same,TGI,[4],27.2 µM
same,TGI,[24],40.2 µM
same,TGI,[25],> 100 µM
same,TGI,[26],53.8 µM
same,TGI,[5],39.4 µM
same,TGI,[27],32.2 µM
same,TGI,[7],43.5 µM
same,TGI,[8],> 100 µM
same,TGI,[28],39.1 µM
same,TGI,[29],20 µM
same,TGI,[30],22.7 µM
same,TGI,[31],40.7 µM
same,TGI,[32],24.6 µM
same,TGI,[33],40 µM
same,TGI,[34],34 µM
same,TGI,[9],4.42 µM
same,TGI,[35],33 µM
same,TGI,[36],30.4 µM
same,TGI,[10],30 µM
same,TGI,[37],58.1 µM
same,TGI,[11],31.9 µM
same,TGI,[38],30.4 µM
same,TGI,[39],26.6 µM
same,TGI,[40],36.4 µM
same,TGI,[41],> 100 µM
same,TGI,[42],30.9 µM
same,TGI,[12],30.2 µM
same,TGI,[13],32.6 µM
same,TGI,[43],33.6 µM
same,TGI,[44],38.7 µM
same,TGI,[14],31.3 µM
same,TGI,[45],32.5 µM
same,TGI,[46],26.6 µM
same,TGI,[47],29 µM
same,TGI,[15],29.1 µM
same,TGI,[48],72.9 µM
same,TGI,[49],30.9 µM
same,TGI,[50],19.6 µM
same,TGI,[51],40.1 µM
same,TGI,[52],35.1 µM
same,TGI,[16],37.9 µM
same,TGI,[17],> 100 µM
same,TGI,[53],49 µM
same,TGI,[54],33.3 µM
same,TGI,[55],> 100 µM
same,TGI,[56],27.2 µM
same,TGI,[57],37.5 µM
same,TGI,[58],78.7 µM
same,TGI,[18],35.5 µM
same,TGI,[59],40.5 µM
same,TGI,[60],41.2 µM
